PMC9325490, “Overcoming Multidrug Resistance (MDR): Design, Biological Evaluation and Molecular Modelling Studies of 2,4‐Substituted Quinazoline Derivatives” (Chemmedchem, 2022)
Entries after “also recorded” stand apart in the source; their conditions may differ.

Experiments:
HT29 cells [1] = test: Intracellular doxorubicin accumulation in HT29 cells; settings: 24 h, doxorubicin 10 μM + compound 100 nM-10 μM
Method: (§2) Cells were collected and the intracellular drug content was measured fluorimetrically as detailed previously,[47] using a Synregy HTX 96‐well plate reader (Bio‐Tek Instruments, Winooski, VT). The results were expressed as nmol doxorubicin/mg cell proteins, according to a titration curve previously set. […] A second series of dishes, after the incubation with doxorubicin formulations under the same experimental conditions, were left for further 10 min at 37 °C, then washed and tested for the intracellular drug content. The difference of doxorubicin concentration between the two series, expressed as nmol doxorubicin extruded/min/mg cell protein was plotted versus the initial drugs’ concentration. Values were fitted to Michaelis‐Menten equation to calculate Vmax and Km, using the Enzfitter software (Biosoft Corporation, Cambridge, United Kingdom).[47]

HT29/DX cells [2] = test: Intracellular doxorubicin accumulation in HT29/DX cells
Method: as §2

HT29 cells [3] = test: Co-administration assay with doxorubicin (MTT) in HT29 cells; format: cell-based
Method: (§1) The co‐administration assay with Doxorubicin was performed in MDCK‐MDR1, HT29 and HT29/DX cells at 48 h as reported with minor modifications.[49] […] On day 2, the tested drug was added alone to the cells at different concentrations (10 nM, 100 nM, 500 nM, 1 μM, 10 μM). On day 3, the medium was removed and the drug at the same concentrations was added alone and in co‐administration with 10 μM Doxorubicin to the cells. After the established incubation time with the tested drug, MTT (0.5 mg/mL) was added to each well, and after 3–4 h incubation at 37 °C, the supernatant was removed. The formazan crystals were solubilized using 100 μL of DMSO/EtOH (1 : 1), and the absorbance values at 570 and 630 nm were determined on the microplate reader Victor 3 from PerkinElmer Life Sciences.

HT29/DX cells [4] = test: Co-administration assay with doxorubicin (MTT) in HT29/DX cells; format: cell-based
Method: as §1

P-gp [5] = test: Apparent permeability (Papp, BA/AB) in Caco-2 cell monolayer; settings: human, Caco-2, P app (BA/AB), two experiments in duplicate
Method: (§3) Compounds displaying a BA/AB >2 but not inducing an ATP cell depletion are classified as class IIB3 substrates.[43]
(§4) Caco‐2 cells were seeded onto a Millicell assay system (Millipore), in which a cell monolayer was set in between a filter cell and a receiver plate at a density of 20000 cells/well. The culture medium was replaced every 48 h, and the cells were kept for 21 days in culture. The trans epithelial electrical resistance (TEER) of the monolayers was measured daily, before and after the experiment, by using an epithelial voltohmmeter (Millicell‐ERS). Generally, TEER values greater than 1000 Ω for a 21 day culture are considered optimal.
(§5) After 21 days of Caco‐2 cell growth, the medium was removed from the filter wells and from the receiver plate, and they were filled with fresh Hank's balanced salt solution (HBSS) buffer (Invitrogen). This procedure was repeated twice, and the plates were incubated at 37 °C for 30 min. After the incubation time, the HBSS buffer was removed, and drug solutions and reference compounds were added to the filter well at a concentration of 100 μM, whereas fresh HBSS was added to the receiver plate. The plates were incubated at 37 °C for 120 min. Afterward, samples were removed from the apical (filter well) and basolateral (receiver plate) side of the monolayer to measure the permeability. The apparent permeability (Papp ), in units of nms‐1, was calculated by using the same equation reported above.

P-gp [6] = biological target: T1, P-gp (Homo sapiens, UniProt P08183); test: Calcein-AM transport inhibition in MDCK-MDR1 cells; settings: for EC50 P-gp: MDCK-MDR1 cells overexpressing P-gp, calcein-AM, mean ±SEM of two experiments in triplicate
Method: (§6) The new compounds were tested for their activity toward P‐gp and the other two MDR sister proteins, MRP1 and BCRP, by measuring the inhibition of the transport of the profluorescent probe calcein‐AM (P‐gp and MRP1 substrate) in cells overexpressing P‐gp and MRP1 (MDCK‐MDR1 and MDCK‐MRP1 cells, respectively) and of the fluorescent probe Hoechst 33342 (BCRP substrate) in cells overexpressing BCRP (MDCK‐BCRP cells).
Each cell line (30,000 cells per well) was seeded into black CulturePlate 96/wells plate with 100 μL medium and allowed to become confluent overnight. 100 μL of test compounds, solubilized in culture medium, were added to monolayers, with final concentrations ranging from 0.1 to 100 μM. Thus, after a 30 min incubation time at 37 °C, calcein‐AM was added in 100 μL of Phosphate Buffered Saline (PBS) to the 96/wells plate to yield a final concentration of 2.5 μM; the plate was then incubated for 30 min. Each well was washed 3 times with ice cold PBS and saline buffer was added to each well and the plate read with Victor3 (PerkinElmer) at excitation and emission wavelengths of 485 nm and 535 nm, respectively. In these experimental conditions, calcein cell accumulation in the absence and in the presence of tested compounds was evaluated and fluorescence basal level was estimated with untreated cells. In treated wells, the increase of fluorescence with respect to basal level was measured. EC50 values were determined by fitting the fluorescence increase percentage versus log[dose].

P-gp [7] = biological target: T1, P-gp; test: ATP cell depletion (ATPlite assay) in MDCK-MDR1 cells; settings: Yes/No
Method: In addition, the P‐gp interacting profile of the new compounds was evaluated by the combination of the inhibition of the efflux of calcein‐AM in MDCK‐MDR1 cells test with other two assays: the apparent permeability (Papp ) determination in the Caco‐2 cell monolayer, and the ATP cell depletion in MDCK‐MDR1 cells. […] This last information is completed by the ATP cell depletion assay, which measures the total ATP cell level in the MDCK cells overexpressing only P‐gp: in this setting, the observed effect can be mainly ascribed to the overexpressed transporter.[42]
The MDCK‐MDR1 cells seeded into 96‐well microplate in 100 μL of complete medium at a density 2×10^4 cells/well were incubated overnight (O/N) in a humidified atmosphere 5 % CO2 at 37 °C. The medium was removed and 100 μL of complete medium either alone or containing different concentrations of test compounds were added. The plate was incubated for 2 h in a humidified 5 % CO2 atmosphere at 37 °C. 50 μL of mammalian cell lysis solution was added to all wells and the plate shaken for five minutes in an orbital shaker. 50 μL of substrate solution was added to all wells and the plate shaken for five minutes in an orbital shaker. The plate was dark adapted for ten minutes and the luminescence was measured.

MRP1 = MRP1 (Homo sapiens, UniProt P33527); test: cell-based
Method: as §6
Each cell line (30,000 cells per well) was seeded into black CulturePlate 96/wells plate with 100 μL medium and allowed to become confluent overnight. 100 μL of test compounds, solubilized in culture medium, were added to monolayers, with final concentrations ranging from 0.1 to 100 μM. […] Each well was washed 3 times with ice cold PBS and saline buffer was added to each well and the plate read with Victor3 (PerkinElmer) at excitation and emission wavelengths of 485 nm and 535 nm, respectively. In these experimental conditions, calcein cell accumulation in the absence and in the presence of tested compounds was evaluated and fluorescence basal level was estimated with untreated cells. In treated wells, the increase of fluorescence with respect to basal level was measured. EC50 values were determined by fitting the fluorescence increase percentage versus log[dose].

Caco-2 cell monolayer = test: Apparent permeability (Papp, BA/AB) in Caco-2 cell monolayer; settings: BA/AB ratio, two experiments in duplicate
Method: as §3, §4, §5

P-gp [8] = biological target: T1, P-gp; test: P-gp interacting profile (combination of calcein-AM, Papp and ATP cell depletion assays); settings: classification from Papp, calcein-AM inhibition and ATP cell depletion
Method: In addition, the P‐gp interacting profile of the new compounds was evaluated by the combination of the inhibition of the efflux of calcein‐AM in MDCK‐MDR1 cells test with other two assays: the apparent permeability (Papp ) determination in the Caco‐2 cell monolayer, and the ATP cell depletion in MDCK‐MDR1 cells. […] This last information is completed by the ATP cell depletion assay, which measures the total ATP cell level in the MDCK cells overexpressing only P‐gp: in this setting, the observed effect can be mainly ascribed to the overexpressed transporter.[42] […] Compounds displaying a BA/AB >2 but not inducing an ATP cell depletion are classified as class IIB3 substrates.[43]

BCRP = biological target: T2, BCRP (Homo sapiens, UniProt Q9UNQ0); test: Hoechst 33342 transport inhibition in MDCK-BCRP cells; format: cell-based; settings: MDCK-BCRP cells overexpressing BCRP, mean ±SEM
T2 construct: expressed in transfected cells; host or cells: MDCK-BCRP (Madin-Darby Canine Kidney, transfected); gift of Prof; P. Borst, NKI-AVL
T2 sequence (Q9UNQ0 1-655): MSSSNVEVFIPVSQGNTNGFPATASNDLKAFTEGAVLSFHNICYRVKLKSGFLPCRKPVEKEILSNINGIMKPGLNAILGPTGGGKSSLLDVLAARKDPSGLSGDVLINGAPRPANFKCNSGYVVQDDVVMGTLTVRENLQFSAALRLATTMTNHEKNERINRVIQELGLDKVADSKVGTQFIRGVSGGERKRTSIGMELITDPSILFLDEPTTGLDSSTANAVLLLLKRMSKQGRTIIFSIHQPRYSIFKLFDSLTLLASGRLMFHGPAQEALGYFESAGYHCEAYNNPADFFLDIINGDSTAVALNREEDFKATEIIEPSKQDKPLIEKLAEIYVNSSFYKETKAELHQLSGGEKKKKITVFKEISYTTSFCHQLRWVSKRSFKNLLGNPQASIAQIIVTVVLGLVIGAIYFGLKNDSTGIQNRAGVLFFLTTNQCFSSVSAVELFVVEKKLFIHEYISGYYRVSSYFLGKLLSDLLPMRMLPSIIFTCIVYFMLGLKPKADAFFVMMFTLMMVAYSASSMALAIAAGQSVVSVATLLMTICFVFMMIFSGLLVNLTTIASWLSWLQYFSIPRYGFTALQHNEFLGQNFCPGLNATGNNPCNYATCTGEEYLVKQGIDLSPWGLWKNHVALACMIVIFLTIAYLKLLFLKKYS
Method: Each cell line (30,000 cells per well) was seeded into black CulturePlate 96/wells plate with 100 μL medium and allowed to become confluent overnight. 100 μL of test compounds, solubilized in culture medium, were added to monolayers, with final concentrations ranging from 0.1 to 100 μM. After 30 min incubation time at 37 °C, Hoechst 33342 was added in 100 μL of Phosphate Buffered Saline (PBS) to yield a final concentration of 8 μM to the 96/wells plate and the plate incubated for 30 min. The supernatants were drained and the cells were fixed for 20 min under light protection using 100 μL per well of a 4 % PFA solution. Each well was washed 3 times with ice cold PBS and saline buffer added to each well and the plate read with Victor3 (PerkinElmer) at excitation and emission wavelengths of 340/35 nm and 485/20 nm, respectively. In these experimental conditions, Hoechst 33342 accumulation in the absence and in the presence of tested compounds was evaluated and fluorescence basal level was estimated with untreated cells. In treated wells the increase of fluorescence with respect to basal level was measured. EC50 values were determined by fitting the fluorescence increase percentage versus log[dose].

HT29/DX cells [9] = test: Kinetic parameters of doxorubicin efflux in HT29/DX cells
Method: as §2

HT29 cells [10] = test: Kinetic parameters of doxorubicin efflux in HT29 cells
Method: as §2

[11] = absence or presence of 10 μM compound 1 e
[12] = read-out: Km of doxorubicin efflux, absence or presence of 10 μM compound 1 e

T1 sequence (P08183 whole entry): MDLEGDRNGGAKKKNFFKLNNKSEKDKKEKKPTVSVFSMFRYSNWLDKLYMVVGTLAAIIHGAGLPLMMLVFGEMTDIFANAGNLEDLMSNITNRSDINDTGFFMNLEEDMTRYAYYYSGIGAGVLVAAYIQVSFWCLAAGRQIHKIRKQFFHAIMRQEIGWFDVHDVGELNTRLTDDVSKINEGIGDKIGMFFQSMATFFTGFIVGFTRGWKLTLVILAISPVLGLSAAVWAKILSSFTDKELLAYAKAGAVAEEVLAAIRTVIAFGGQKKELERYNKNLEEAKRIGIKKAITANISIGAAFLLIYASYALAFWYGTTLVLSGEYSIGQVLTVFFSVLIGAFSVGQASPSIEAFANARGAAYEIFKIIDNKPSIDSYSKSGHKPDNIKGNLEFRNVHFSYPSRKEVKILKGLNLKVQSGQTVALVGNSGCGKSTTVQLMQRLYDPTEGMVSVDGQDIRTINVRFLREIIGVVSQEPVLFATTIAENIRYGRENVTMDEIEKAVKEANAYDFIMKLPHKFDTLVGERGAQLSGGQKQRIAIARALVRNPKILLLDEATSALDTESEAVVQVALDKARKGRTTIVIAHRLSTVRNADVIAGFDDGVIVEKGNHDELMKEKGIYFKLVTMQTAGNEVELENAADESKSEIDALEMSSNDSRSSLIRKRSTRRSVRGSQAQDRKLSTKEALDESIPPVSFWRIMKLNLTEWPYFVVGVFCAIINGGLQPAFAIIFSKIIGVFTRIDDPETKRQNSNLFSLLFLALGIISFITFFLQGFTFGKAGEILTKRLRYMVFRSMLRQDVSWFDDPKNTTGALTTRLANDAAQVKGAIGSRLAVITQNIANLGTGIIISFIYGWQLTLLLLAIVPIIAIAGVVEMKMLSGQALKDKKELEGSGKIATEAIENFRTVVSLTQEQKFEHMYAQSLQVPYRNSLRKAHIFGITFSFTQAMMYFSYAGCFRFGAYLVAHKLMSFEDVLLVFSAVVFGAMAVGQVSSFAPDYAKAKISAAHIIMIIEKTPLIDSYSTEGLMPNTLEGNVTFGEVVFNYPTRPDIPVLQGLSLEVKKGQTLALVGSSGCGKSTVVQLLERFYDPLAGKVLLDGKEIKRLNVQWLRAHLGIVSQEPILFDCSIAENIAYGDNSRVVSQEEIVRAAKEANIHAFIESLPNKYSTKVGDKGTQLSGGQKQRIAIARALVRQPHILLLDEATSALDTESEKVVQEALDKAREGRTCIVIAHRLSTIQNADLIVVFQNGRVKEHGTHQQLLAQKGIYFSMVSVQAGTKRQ
Sequence of MRP1 (P33527 whole entry): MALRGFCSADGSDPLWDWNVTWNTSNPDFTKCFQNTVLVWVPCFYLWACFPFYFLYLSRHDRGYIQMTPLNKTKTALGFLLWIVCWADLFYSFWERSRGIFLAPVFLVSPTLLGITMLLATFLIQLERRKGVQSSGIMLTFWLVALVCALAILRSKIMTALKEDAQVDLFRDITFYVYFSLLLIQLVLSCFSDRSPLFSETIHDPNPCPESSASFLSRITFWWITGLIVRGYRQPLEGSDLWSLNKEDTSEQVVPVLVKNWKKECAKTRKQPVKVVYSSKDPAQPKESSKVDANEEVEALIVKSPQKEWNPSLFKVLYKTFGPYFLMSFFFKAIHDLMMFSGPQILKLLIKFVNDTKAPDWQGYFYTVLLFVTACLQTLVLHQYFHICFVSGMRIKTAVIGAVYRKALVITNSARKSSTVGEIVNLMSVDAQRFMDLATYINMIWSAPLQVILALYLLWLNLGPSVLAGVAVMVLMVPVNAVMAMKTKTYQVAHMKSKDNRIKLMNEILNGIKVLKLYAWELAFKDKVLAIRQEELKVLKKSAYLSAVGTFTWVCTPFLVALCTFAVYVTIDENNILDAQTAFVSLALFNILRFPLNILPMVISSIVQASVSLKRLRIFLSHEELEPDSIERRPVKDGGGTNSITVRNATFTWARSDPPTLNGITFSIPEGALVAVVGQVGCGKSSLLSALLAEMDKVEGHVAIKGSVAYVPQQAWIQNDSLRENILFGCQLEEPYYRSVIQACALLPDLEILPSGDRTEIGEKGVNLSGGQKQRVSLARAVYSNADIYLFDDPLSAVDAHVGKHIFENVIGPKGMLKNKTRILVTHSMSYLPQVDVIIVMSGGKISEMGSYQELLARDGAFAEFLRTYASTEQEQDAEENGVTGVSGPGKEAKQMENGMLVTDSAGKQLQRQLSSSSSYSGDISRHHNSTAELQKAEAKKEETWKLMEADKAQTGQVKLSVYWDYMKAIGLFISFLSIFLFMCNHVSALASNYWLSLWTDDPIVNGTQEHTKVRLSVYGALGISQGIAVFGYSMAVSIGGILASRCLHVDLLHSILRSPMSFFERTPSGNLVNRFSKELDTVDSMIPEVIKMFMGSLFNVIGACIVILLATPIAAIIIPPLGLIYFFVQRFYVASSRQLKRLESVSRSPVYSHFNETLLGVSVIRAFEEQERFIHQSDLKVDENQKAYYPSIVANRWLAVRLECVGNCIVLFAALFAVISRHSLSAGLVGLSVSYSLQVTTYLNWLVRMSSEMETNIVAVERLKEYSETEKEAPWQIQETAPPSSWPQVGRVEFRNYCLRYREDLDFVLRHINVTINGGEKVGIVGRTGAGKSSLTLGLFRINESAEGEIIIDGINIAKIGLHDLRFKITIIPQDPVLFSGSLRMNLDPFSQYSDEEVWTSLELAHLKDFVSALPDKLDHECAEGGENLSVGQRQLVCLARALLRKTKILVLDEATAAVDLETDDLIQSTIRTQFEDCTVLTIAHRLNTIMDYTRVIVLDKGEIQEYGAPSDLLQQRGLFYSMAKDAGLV

efflux ratio at 120 min, 100 μM (P-gp [5]) | ATP cell depletion (P-gp [7]) | EC50 (P-gp [6]) [µM] | SMILES | further results
 |  |  | COc1cc2c(cc1OC)CN(c1nc(/C=C/c3cc(OC)c(OC)c(OC)c3)nc3ccccc13)CC2 [Compound 1 e, (E)‐4‐(6,7‐Dimethoxy‐3,4‐dihydroisoquinolin‐2(1H)‐yl)‐2‐(3,4,5‐trimethoxystyryl)quinazoline] | effect on intracellular doxorubicin content (HT29 cells [1]): did not modify the intracellular drug content; effect on intracellular doxorubicin content (HT29/DX cells [2]; HT29/DX cells, 24 h, doxorubicin 10 μM + compound 100 nM-10 μM): progressively increased it; cell viability, compound alone (HT29 cells [3]; HT29 (doxorubicin-sensitive) cells): did not significantly reduce cell viability; cell viability, compound alone (HT29/DX cells [4]; HT29/DX (doxorubicin-resistant) cells): did not significantly reduce cell viability; viability with doxorubicin co-administration (HT29/DX cells [4]; HT29/DX cells, doxorubicin 10 μM + compound 10 μM): reduced at the same extent of doxorubicin‐sensitive cells
10.5 |  |  | c1ccc(CCNc2nc(-c3c4ccccc4cc4ccccc34)nc3ccccc23)cc1 [Compound 3 b, 2‐(Anthracen‐9‐yl)‐N‐phenethylquinazolin‐4‐amine] | melting point: 236 to 238 °C (dec.); EC50 P-gp (P-gp [6]): not active
20 |  |  | c1ccc2c(-c3nc(N4CCOCC4)c4ccccc4n3)c3ccccc3cc2c1 [Compound 3 c, 4‐(2‐(Anthracen‐9‐yl)quinazolin‐4‐yl)morpholine] | EC50 P-gp (P-gp [6]): not active
18.5 | No | 1.14 ± 0.2 | COc1cc2c(cc1OC)CN(c1nc(-c3c4ccccc4cc4ccccc34)nc3ccccc13)CC2 [Compound 3 e, 2‐(Anthracen‐9‐yl)‐4‐(6,7‐dimethoxy‐3,4‐dihydroisoquinolin‐2(1H)‐yl)quinazoline] | 
14.8 | No | 1.41 ± 0.25 | COc1ccc(-c2nc(NCCc3ccccc3)c3ccccc3n2)c(OC)c1OC [Compound 4 b, N‐Phenethyl‐2‐(2,3,4‐trimethoxyphenyl)quinazolin‐4‐amine] | EC50 (MRP1): 52 ± 10.1 µM
3.8 | No | 9.55 ± 1.8 | COc1ccc(-c2nc(N3CCOCC3)c3ccccc3n2)c(OC)c1OC [Compound 4 c, 4‐(2‐(2,3,4‐Trimethoxyphenyl)quinazolin‐4‐yl)morpholine] | 
5.4 | No | 6.06 ± 1.2 | COc1ccc2ccccc2c1-c1nc(N2CCN(C)CC2)c2ccccc2n1 [Compound 5 d, 2‐(2‐Methoxynaphthalen‐1‐yl)‐4‐(4‐methylpiperazin‐1‐yl)quinazoline] | 
19.2 | No | 0.2 ± 0.04 | COc1cc2c(cc1OC)CN(CCc1ccc(Nc3nc(-c4c(OC)c(OC)cc5ccccc45)nc4ccccc34)cc1)CC2 [Compound 6 a, N‐(4‐(2‐(6,7‐Dimethoxy‐3,4‐dihydroisoquinolin‐2(1H)‐yl)ethyl)phenyl)‐2‐(2,3‐dimethoxynaphthalen‐1‐yl)quinazolin‐4‐amine] | 
32.9 | No | 0.11 ± 0.02 | COc1ccc(C(c2ccc(OC)cc2)c2nc(Nc3ccc(CCN4CCc5cc(OC)c(OC)cc5C4)cc3)c3ccccc3n2)cc1 [Compound 7 a, 2‐(Bis(4‐methoxyphenyl)methyl)‐N‐(4‐(2‐(6,7‐dimethoxy‐3,4‐dihydroisoquinolin‐2(1H)‐yl)ethyl)phenyl)quinazolin‐4‐amine] | 
6.9 | No | 0.96 ± 0.18 | COc1ccc(C(c2ccc(OC)cc2)c2nc(N3CCN(C)CC3)c3ccccc3n2)cc1 [Compound 7 d, 2‐(Bis(4‐methoxyphenyl)methyl)‐4‐(4‐methylpiperazin‐1‐yl)quinazoline] | EC50 (BCRP): 8.62 ± 1.6 µM; EC50 (MRP1): 43.2 ± 8.5 µM
8.4 | No | 0.16 ± 0.026 | COc1ccc(C(c2ccc(OC)cc2)c2nc(N3CCc4cc(OC)c(OC)cc4C3)c3ccccc3n2)cc1 [Compound 7 e, 2‐(Bis(4‐methoxyphenyl)methyl)‐4‐(6,7‐dimethoxy‐3,4‐dihydroisoquinolin‐2(1H)‐yl)quinazoline] | 
 |  |  | COc1cccc2c1C(=O)c1c(O)c3c(c(O)c1C2=O)C[C@@](O)(C(=O)CO)C[C@@H]3O[C@H]1C[C@H](N)[C@H](O)[C@H](C)O1 [Doxo, doxorubicin] | Vmax of doxorubicin efflux (HT29/DX cells [9]; [11]): 8.05 ± 0.64 µmol/min; Km (HT29/DX cells [9]; [12]): 0.52 ± 0.06 µM; intracellular doxorubicin retained, doxorubicin alone (HT29/DX cells [2]; HT29/DX cells compared with HT29 cells): retained a lower amount of doxorubicin; viable cells, doxorubicin alone (HT29 cells [3]; HT29 cells, doxorubicin 10 μM): significant decrease in viable cells; Vmax of doxorubicin efflux (HT29 cells [10]; [11]): 3.15 ± 0.07 µmol/min; Km (HT29 cells [10]; [12]): 0.53 ± 0.06 µM
 | Yes^[e] |  | COc1cc2c(cc1OC)CN(CCc1ccc(NC(=O)c3cccc4c(=O)c5cccc(OC)c5[nH]c34)cc1)CC2 [elacr, elacridar, reference compound] | 
> 20 | Yes^[d] |  | COc1cc2c(cc1OC)CN(CCc1ccc(NC(=O)c3cc(OC)c(OC)cc3NC(=O)c3cnc4ccccc4c3)cc1)CC2 [tariq, tariquidar, reference compound] | 

SMILES | efflux ratio at 120 min, 100 μM (P-gp [5]) | ATP cell depletion (P-gp [7]) | EC50 (P-gp [6]) [µM] | further results
COc1ccc(C(c2ccc(OC)cc2)c2nc(N3CCOCC3)c3ccccc3n2)cc1 [Compound 7 c] | < 2 | do not inducing ATP cell depletion and No | 2.13 ± 0.4 | P app (BA/AB) (Caco-2 cell monolayer): 1.5; P-gp interacting profile (P-gp [8]): P‐gp inhibitor; also recorded: pure inhibitor
